Measured values reported in ChEMBL document CHEMBL1201861, “Genomics of Drug Sensitity in Cancer screening data, Wellcome Trust Sanger Institute”.

Tests used:
Assay in all cases: cells
[1] = system: BB49-HNC; assay type: functional, cell-based, Homo sapiens; settings: Homo sapiens, BB49-HNC;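 further: cell viability assay read-out, reported as inhibition of BB49-HNC cell growth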
Description: SANGER: Inhibition of human BB49-HNC cell growth in a cell viability assay.

[2] = system: NCI-H1650; assay type: functional, cell-based, Homo sapiens; settings: Homo sapiens, NCI-H1650;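 further: growth inhibition of human NCI-H1650 cells measured by a cell viability assay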
Description: SANGER: Inhibition of human NCI-H1650 cell growth in a cell viability assay.

[3] = system: SW684; assay type: functional, cell-based, Homo sapiens; settings: Homo sapiens, SW684;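 further: growth inhibition of human SW684 cells, measured by a cell viability assay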
Description: SANGER: Inhibition of human SW684 cell growth in a cell viability assay.

[4] = system: KM-H2; assay type: functional, cell-based; settings: Homo sapiens;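 further: growth inhibition of KM-H2 cells, read out by a cell viability assay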
Description: SANGER: Inhibition of human KM-H2 cell growth in a cell viability assay.

[5] = system: GR-ST; assay type: functional, cell-based; settings: Homo sapiens
Description: SANGER: Inhibition of human GR-ST cell growth in a cell viability assay.

[6] = system: HuTu80; assay type: functional, cell-based, Homo sapiens, HUTU-80; settings: Homo sapiens, HuTu80;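 further: growth inhibition of HuTu80 human cells, determined with a cell viability readout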
Description: SANGER: Inhibition of human HUTU-80 cell growth in a cell viability assay.

[7] = system: SiHa; assay type: functional, cell-based, Homo sapiens; settings: Homo sapiens, SiHa;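 further: Viability-based readout of growth inhibition in SiHa cells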
Description: SANGER: Inhibition of human SiHa cell growth in a cell viability assay.

[8] = system: ES5; assay type: functional, cell-based, Homo sapiens; settings: Homo sapiens, ES5;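 further: growth inhibition of human ES5 cells, read out by a cell viability assay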
[9] = system: KURAMOCHI; assay type: functional, cell-based; settings: Homo sapiens;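 further: growth inhibition of KURAMOCHI cells, read out with a cell viability assay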
Description: SANGER: Inhibition of human KURAMOCHI cell growth in a cell viability assay.

[10] = system: NCI-H2342; assay type: functional, cell-based; settings: Homo sapiens;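 further: growth inhibition of the cancer cell line, determined with a cell viability assay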
Description: SANGER: Inhibition of human NCI-H2342 cell growth in a cell viability assay.

[11] = system: GB-1; assay type: functional, cell-based, Homo sapiens; settings: Homo sapiens, GB-1;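 further: growth of GB-1 cells judged by a viability assay, IC50 marks the concentration inhibiting growth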
Description: SANGER: Inhibition of human GB-1 cell growth in a cell viability assay.

[12] = system: NOMO-1; assay type: functional, cell-based; settings: Homo sapiens;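 further: growth inhibition of human NOMO-1 cells measured by a cell viability assay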
Description: SANGER: Inhibition of human NOMO-1 cell growth in a cell viability assay.

[13] = system: NCI-H1092; assay type: functional, cell-based; settings: Homo sapiens;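 further: cell growth inhibition measured with a cell viability assay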
Description: SANGER: Inhibition of human NCI-H1092 cell growth in a cell viability assay.

[14] = system: MV4-11; assay type: functional, cell-based, MV-4-11; settings: Homo sapiens;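 further: cell viability readout measuring growth inhibition of human MV-4-11 cells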
Description: SANGER: Inhibition of human MV-4-11 cell growth in a cell viability assay.

[15] = system: TE-6; assay type: functional, cell-based, Homo sapiens; settings: Homo sapiens, TE-6;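 further: growth inhibition of TE-6 cells, read out with a cell viability assay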
Description: SANGER: Inhibition of human TE-6 cell growth in a cell viability assay.

[16] = system: SK-MEL-24; assay type: functional, cell-based; settings: Homo sapiens;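 further: growth inhibition read out by a cell viability assay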
Description: SANGER: Inhibition of human SK-MEL-24 cell growth in a cell viability assay.

[17] = system: HuO-3N1; assay type: functional, cell-based, Homo sapiens; settings: Homo sapiens, HuO-3N1;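 further: cell viability readout used to measure how strongly compounds suppress proliferation of human HuO-3N1 cells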
Description: SANGER: Inhibition of human HuO-3N1 cell growth in a cell viability assay.

[18] = system: NB5; assay type: functional, cell-based, Homo sapiens; settings: Homo sapiens, NB5;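 further: growth inhibition of NB5 cells, read out as cell viability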
Description: SANGER: Inhibition of human NB5 cell growth in a cell viability assay.

[19] = system: RVH-421; assay type: functional, cell-based, Homo sapiens; settings: Homo sapiens, RVH-421
Description: SANGER: Inhibition of human RVH-421 cell growth in a cell viability assay.

[20] = system: SW-620; assay type: functional, cell-based, Homo sapiens; settings: Homo sapiens, SW-620;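 further: growth inhibition of human SW-620 cells, measured by a cell viability assay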
Description: SANGER: Inhibition of human SW620 cell growth in a cell viability assay.

[21] = system: CTB-1; assay type: functional, cell-based; settings: Homo sapiens
Description: SANGER: Inhibition of human CTB-1 cell growth in a cell viability assay.

[22] = system: COLO-792; assay type: functional, cell-based, Homo sapiens; settings: Homo sapiens, COLO-792
Description: SANGER: Inhibition of human COLO-792 cell growth in a cell viability assay.

[23] = system: LC-2-ad; assay type: functional, cell-based, Homo sapiens; settings: Homo sapiens, LC-2-ad;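 further: growth inhibition of human LC-2-ad cells, read out with a cell viability assay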
Description: SANGER: Inhibition of human LC-2-ad cell growth in a cell viability assay.

[24] = system: LN-405; assay type: functional, cell-based, Homo sapiens; settings: Homo sapiens, LN-405
Description: SANGER: Inhibition of human LN-405 cell growth in a cell viability assay.

[25] = system: MC116; assay type: functional, cell-based; settings: Homo sapiens;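 further: growth inhibition of MC116 cells, read out with a cell viability assay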
Description: SANGER: Inhibition of human MC116 cell growth in a cell viability assay.

[26] = system: KG-1; assay type: functional, cell-based; settings: Homo sapiens;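 further: growth inhibition of KG-1 cells, read out by a cell viability assay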
Description: SANGER: Inhibition of human KG-1 cell growth in a cell viability assay.

[27] = system: KYSE-410; assay type: functional, cell-based, Homo sapiens; settings: Homo sapiens, KYSE-410;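 further: growth inhibition of KYSE-410 cells, measured through a cell viability readout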
Description: SANGER: Inhibition of human KYSE-410 cell growth in a cell viability assay.

[28] = system: MSTO-211H; assay type: functional, cell-based, Homo sapiens; settings: Homo sapiens, MSTO-211H
Description: SANGER: Inhibition of human MSTO-211H cell growth in a cell viability assay.

[29] = system: SF-126; assay type: functional, cell-based, Homo sapiens; settings: Homo sapiens, SF-126;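 further: growth inhibition of human SF126 cells, read out with a cell viability assay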
Description: SANGER: Inhibition of human SF126 cell growth in a cell viability assay.

[30] = system: D-247MG; assay type: functional, cell-based, Homo sapiens; settings: Homo sapiens, D-247MG
Description: SANGER: Inhibition of human D-247MG cell growth in a cell viability assay.

[31] = system: KARPAS-45; assay type: functional, cell-based; settings: Homo sapiens;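 further: inhibition of cell line growth, read out through a viability assay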
Description: SANGER: Inhibition of human KARPAS-45 cell growth in a cell viability assay.

[32] = system: 8305C; assay type: functional, cell-based, Homo sapiens; settings: Homo sapiens, 8305C
Description: SANGER: Inhibition of human 8305C cell growth in a cell viability assay.

[33] = system: EGI-1; assay type: functional, cell-based, Homo sapiens; settings: Homo sapiens, EGI-1;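 further: cell viability readout used to gauge growth inhibition of EGI-1 cells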
Description: SANGER: Inhibition of human EGI-1 cell growth in a cell viability assay.

[34] = system: TGBC24TKB; assay type: functional, cell-based, Homo sapiens; settings: Homo sapiens, TGBC24TKB;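 further: growth inhibition of human TGBC24TKB cells, read out with a cell viability assay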
Description: SANGER: Inhibition of human TGBC24TKB cell growth in a cell viability assay.

[35] = system: RMG-I; assay type: functional, cell-based, Homo sapiens; settings: Homo sapiens, RMG-I;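 further: growth inhibition of human RMG-I cells, read out with a cell viability assay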
Description: SANGER: Inhibition of human RMG-I cell growth in a cell viability assay.

[36] = system: DJM-1; assay type: functional, cell-based, Homo sapiens; settings: Homo sapiens, DJM-1;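 further: growth inhibition of human DJM-1 cells, read out by a cell viability assay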
Description: SANGER: Inhibition of human DJM-1 cell growth in a cell viability assay.

[37] = system: Daoy; assay type: functional, cell-based, Homo sapiens; settings: Homo sapiens, Daoy;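 further: daoy cell growth inhibition, read out as cell viability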
Description: SANGER: Inhibition of human Daoy cell growth in a cell viability assay.

[38] = system: G-402; assay type: functional, cell-based, Homo sapiens; settings: Homo sapiens, G-402
Description: SANGER: Inhibition of human G-402 cell growth in a cell viability assay.

[39] = system: SW 962; assay type: functional, cell-based, Homo sapiens; settings: Homo sapiens, SW 962;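 further: growth inhibition of human SW962 cells, read out by a cell viability assay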
Description: SANGER: Inhibition of human SW962 cell growth in a cell viability assay.

[40] = system: LB831-BLC; assay type: functional, cell-based, Homo sapiens; settings: Homo sapiens, LB831-BLC;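 further: growth inhibition of LB831-BLC cells, read out with a cell viability assay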
Description: SANGER: Inhibition of human LB831-BLC cell growth in a cell viability assay.

[41] = system: GCT; assay type: functional, cell-based, Homo sapiens; settings: Homo sapiens, GCT;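 further: GCT cell line proliferation inhibition, read out with a cell viability assay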
Description: SANGER: Inhibition of human GCT cell growth in a cell viability assay.

[42] = system: OAW-28; assay type: functional, cell-based, Homo sapiens; settings: Homo sapiens, OAW-28;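 further: growth inhibition of OAW-28 cells, read out with a cell viability assay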
Description: SANGER: Inhibition of human OAW-28 cell growth in a cell viability assay.

[43] = system: ETK-1; assay type: functional, cell-based, Homo sapiens; settings: Homo sapiens, ETK-1;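 further: growth inhibition of human ETK-1 cells, read out with a cell viability assay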
Description: SANGER: Inhibition of human ETK-1 cell growth in a cell viability assay.

[44] = system: UACC-893; assay type: functional, cell-based, Homo sapiens; settings: Homo sapiens, UACC-893
Description: SANGER: Inhibition of human UACC-893 cell growth in a cell viability assay.

[45] = system: NCI-H526; assay type: functional, cell-based; settings: Homo sapiens;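 further: growth inhibition of the human NCI-H526 cell line, measured by a cell viability assay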
Description: SANGER: Inhibition of human NCI-H526 cell growth in a cell viability assay.

[46] = system: COLO-320-HSR; assay type: functional, cell-based; settings: Homo sapiens;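 further: growth inhibition of COLO-320-HSR cells, determined with a cell viability assay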
Description: SANGER: Inhibition of human COLO-320-HSR cell growth in a cell viability assay.

[47] = system: JAR; assay type: functional, cell-based, Homo sapiens; settings: Homo sapiens, JAR;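 further: growth inhibition of human JAR cells determined with a cell viability assay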
Description: SANGER: Inhibition of human JAR cell growth in a cell viability assay.

[48] = system: NB7; assay type: functional, cell-based; settings: Homo sapiens;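 further: growth inhibition of NB7 cells, read out with a cell viability assay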
Description: SANGER: Inhibition of human NB7 cell growth in a cell viability assay.

[49] = system: SCC-15; assay type: functional, cell-based, Homo sapiens; settings: Homo sapiens, SCC-15;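 further: growth inhibition of SCC-15 cells, read out with a cell viability assay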
Description: SANGER: Inhibition of human SCC-15 cell growth in a cell viability assay.

[50] = system: DBTRG-05MG; assay type: functional, cell-based, Homo sapiens; settings: Homo sapiens, DBTRG-05MG;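 further: cell viability assay measuring growth inhibition of human DBTRG-05MG cells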
Description: SANGER: Inhibition of human DBTRG-05MG cell growth in a cell viability assay.

[51] = system: BT-20; assay type: functional, cell-based, Homo sapiens; settings: Homo sapiens, BT-20;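 further: cell viability assay measuring suppression of growth in human BT-20 cells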
Description: SANGER: Inhibition of human BT-20 cell growth in a cell viability assay.

[52] = system: LoVo; assay type: functional, cell-based; settings: Homo sapiens;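 further: growth inhibition of human LoVo cells, read out with a cell viability assay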
Description: SANGER: Inhibition of human LoVo cell growth in a cell viability assay.

[53] = system: MOLT-16; assay type: functional, cell-based; settings: Homo sapiens;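 further: growth inhibition of human MOLT-16 cells, read out with a cell viability assay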
Description: SANGER: Inhibition of human MOLT-16 cell growth in a cell viability assay.

Question: Which IC50 [1] does the source give for `CCOc1nc(NC(=O)Cc2cc(OC)ccc2OC)cc(N)c1C#N` here?
Answer: > 10000 nM

Question: What about the IC50 [2] of the same molecule?
Answer: > 10000 nM

Question: What about the IC50 [3] of the same molecule?
Answer: > 10000 nM

Question: What about the IC50 [4] of the same molecule?
Answer: > 10000 nM

Question: And the IC50 [5]?
Answer: > 10000 nM

Question: What about the IC50 [6] of the same molecule?
Answer: > 10000 nM

Question: What about the IC50 [7] of the same molecule?
Answer: > 10000 nM

Question: And the IC50 [8]?
Answer: > 10000 nM

Question: And the IC50 [9]?
Answer: > 10000 nM

Question: And the IC50 [10]?
Answer: > 10000 nM

Question: And the IC50 [11]?
Answer: > 10000 nM

Question: What about the IC50 [12] of the same molecule?
Answer: > 10000 nM

Question: And the IC50 [13]?
Answer: > 10000 nM

Question: And the IC50 [14]?
Answer: > 10000 nM

Question: What about the IC50 [15] of the same molecule?
Answer: > 10000 nM

Question: And the IC50 [16]?
Answer: > 10000 nM

Question: What about the IC50 [17] of the same molecule?
Answer: > 10000 nM

Question: What about the IC50 [18] of the same molecule?
Answer: > 10000 nM

Question: And the IC50 [19]?
Answer: > 10000 nM

Question: And the IC50 [20]?
Answer: > 10000 nM

Question: What about the IC50 [21] of the same molecule?
Answer: > 10000 nM

Question: And the IC50 [22]?
Answer: > 10000 nM

Question: What about the IC50 [23] of the same molecule?
Answer: > 10000 nM

Question: And the IC50 [24]?
Answer: > 10000 nM

Question: And the IC50 [25]?
Answer: > 10000 nM

Question: What about the IC50 [26] of the same molecule?
Answer: > 10000 nM

Question: And the IC50 [27]?
Answer: > 10000 nM

Question: And the IC50 [28]?
Answer: > 10000 nM

Question: And the IC50 [29]?
Answer: > 10000 nM

Question: What about the IC50 [30] of the same molecule?
Answer: > 10000 nM

Question: And the IC50 [31]?
Answer: > 10000 nM

Question: What about the IC50 [32] of the same molecule?
Answer: > 10000 nM

Question: And the IC50 [33]?
Answer: > 10000 nM

Question: What about the IC50 [34] of the same molecule?
Answer: > 10000 nM

Question: And the IC50 [35]?
Answer: > 10000 nM

Question: And the IC50 [36]?
Answer: > 10000 nM

Question: What about the IC50 [37] of the same molecule?
Answer: > 10000 nM

Question: And the IC50 [38]?
Answer: > 10000 nM

Question: And the IC50 [39]?
Answer: > 10000 nM

Question: What about the IC50 [40] of the same molecule?
Answer: > 10000 nM

Question: And the IC50 [41]?
Answer: > 10000 nM

Question: And the IC50 [42]?
Answer: > 10000 nM

Question: What about the IC50 [43] of the same molecule?
Answer: > 10000 nM

Question: What about the IC50 [44] of the same molecule?
Answer: > 10000 nM

Question: And the IC50 [45]?
Answer: > 10000 nM

Question: And the IC50 [46]?
Answer: > 10000 nM

Question: What about the IC50 [47] of the same molecule?
Answer: > 10000 nM

Question: What about the IC50 [48] of the same molecule?
Answer: 2270 nM

Question: And the IC50 [49]?
Answer: > 10000 nM

Question: And the IC50 [50]?
Answer: > 10000 nM

Question: What about the IC50 [51] of the same molecule?
Answer: > 10000 nM

Question: And the IC50 [52]?
Answer: > 10000 nM

Question: What about the IC50 [53] of the same molecule?
Answer: > 10000 nM

Question: How did the IC50 [1] turn out when `CN(C)C/C=C/C(=O)Nc1cc2c(Nc3ccc(F)c(Cl)c3)ncnc2cc1O[C@H]1CCOC1` [AFATINIB] was run?
Answer: > 500 nM

Question: And the IC50 [2]?
Answer: > 500 nM

Question: What about the IC50 [3] of the same molecule?
Answer: > 500 nM

Question: And the IC50 [4]?
Answer: > 500 nM

Question: And the IC50 [5]?
Answer: > 500 nM

Question: What about the IC50 [6] of the same molecule?
Answer: > 500 nM

Question: And the IC50 [7]?
Answer: > 500 nM

Question: And the IC50 [8]?
Answer: > 500 nM

Question: And the IC50 [9]?
Answer: > 500 nM

Question: And the IC50 [10]?
Answer: > 500 nM

Question: And the IC50 [11]?
Answer: > 500 nM

Question: And the IC50 [12]?
Answer: > 500 nM

Question: What about the IC50 [13] of the same molecule?
Answer: > 500 nM

Question: What about the IC50 [14] of the same molecule?
Answer: > 500 nM

Question: And the IC50 [15]?
Answer: 402 nM

Question: What about the IC50 [16] of the same molecule?
Answer: > 500 nM

Question: And the IC50 [17]?
Answer: > 500 nM

Question: What about the IC50 [18] of the same molecule?
Answer: > 500 nM

Question: What about the IC50 [19] of the same molecule?
Answer: > 500 nM

Question: What about the IC50 [20] of the same molecule?
Answer: > 500 nM

Question: And the IC50 [21]?
Answer: > 500 nM

Question: What about the IC50 [22] of the same molecule?
Answer: > 500 nM

Question: And the IC50 [23]?
Answer: > 500 nM

Question: And the IC50 [24]?
Answer: > 500 nM

Question: What about the IC50 [25] of the same molecule?
Answer: > 500 nM

Question: And the IC50 [26]?
Answer: > 500 nM

Question: And the IC50 [27]?
Answer: > 500 nM

Question: And the IC50 [28]?
Answer: > 500 nM

Question: And the IC50 [29]?
Answer: > 500 nM

Question: What about the IC50 [30] of the same molecule?
Answer: > 500 nM

Question: What about the IC50 [31] of the same molecule?
Answer: 16.7 nM

Question: And the IC50 [32]?
Answer: > 500 nM

Question: What about the IC50 [33] of the same molecule?
Answer: > 500 nM

Question: What about the IC50 [34] of the same molecule?
Answer: > 500 nM

Question: And the IC50 [35]?
Answer: > 500 nM

Question: And the IC50 [36]?
Answer: > 500 nM

Question: What about the IC50 [37] of the same molecule?
Answer: > 500 nM

Question: What about the IC50 [38] of the same molecule?
Answer: > 500 nM

Question: And the IC50 [39]?
Answer: > 500 nM

Question: And the IC50 [40]?
Answer: > 500 nM

Question: What about the IC50 [41] of the same molecule?
Answer: > 500 nM

Question: And the IC50 [42]?
Answer: > 500 nM

Question: And the IC50 [43]?
Answer: > 500 nM

Question: And the IC50 [44]?
Answer: 119 nM

Question: And the IC50 [45]?
Answer: 78.2 nM

Question: And the IC50 [46]?
Answer: > 500 nM

Question: What about the IC50 [47] of the same molecule?
Answer: > 500 nM

Question: And the IC50 [48]?
Answer: > 500 nM

Question: And the IC50 [49]?
Answer: > 500 nM

Question: And the IC50 [50]?
Answer: > 500 nM

Question: What about the IC50 [51] of the same molecule?
Answer: > 500 nM

Question: What about the IC50 [52] of the same molecule?
Answer: > 500 nM

Question: What about the IC50 [53] of the same molecule?
Answer: > 500 nM
